The values that follow come from patent USRE37534E1, “Pharmaceutical compositions” (BTG International Limited, priority 1982, dated 2002).

In one data set the test system is rat jejunal sac. Briefly: Permeation of everted rat jejunal sac by iron complexes. In kind it is in vitro ADME. As to conditions: for Relative iron uptake, 15 minutes / Relative iron uptake, 60 minutes: relative to ferric chloride as 1. From the text: Rats (male Sprague Dawley, 60 g) were killed and the jejunum removed, everted and cut into three segments (4 cm length). […] The contents of the sac were counted for ^59Fe and measured spectrophotometrically. […] The procedure described above was used to compare the uptake of iron from buffer containing differing molar proportions of maltol:iron.

The subject of another data set is human erythrocytes. Nature of the data set: Permeation of iron complexes into human erythrocytes (59Fe distribution ratio). As to conditions: 37° C.; for Distribution ratio (concentration in erythrocytes/concentration in medium): 1 hour, pH 7.4. The data set is classed as cell-based.
The nature of data set [1]: In vivo 59Fe uptake after administration into the duodenum of the rat. As to conditions: 100 μg Fe into duodenum; for introduction of iron via the rat intestine (59Fe in organs), comparison: 1-6 hours, FIGS. 1-4. As for the experimental part:
Groups of rats (300-350 g) were anaesthetised with nembutal (0.25 ml) and then with ether. […] The abdominal well was then closed with a suture. […] In the case of the data for blood and sternum (bone marrow) the counts given are cpm/ml and cpm/g respectively, whilst in all other cases they are the total cpm counts.

A short description of data set [2]: Iron take-up in human subjects by whole body counting. The data set is classed as in vivo. As to conditions: for level of take-up of iron by whole body counting: normal subject. As for the experimental part:
Capsules containing 3:1 iron(III) maltol, […] were prepared according to the procedure of Example 7^(1) with the modification that at 3:1 molar ratio of maltol:iron was used (no free maltol therefore being present in the capsules) and that a proportion of the ferric chloride used in the preparation of the iron maltol was radiolabelled as ^59Fe. The capsules each contained 10 mg of iron, this amount being labelled with 1 microcurie of ^59Fe, and were subjected to a single coating procedure.
The test involved two normal subjects, i.e. not suffering from iron deficiency, one of whom took a 10 mg dose of iron (one capsule) and the other whom took a 20 mg does of iron (two capsules). The capsule or capsules were taken after fasting overnight and fasting was then continued for a further 2 hours. The take-up of iron by the subjects was followed by means of whole body counting, using a calibrated body counter, reading being taken 4 to 8 hours after ingestion of the capsules to establish a base level and then after 7 and 14 days. Excretion of iron by the subjects was followed through the counting, in a large volume counter calibrated for iron, of daily urine samples over 3 days and daily stool samples over 10 days.

A short description of data set [3]: Affinity / stability constant of ligand for iron(III). The data set is classed as physicochemical. The source says: (§1) In order to solubilise iron(III) hydroxide, log Ksol must be greater than 0. The value of Ksol for maltol is 0.8 and this is also sufficiently large to prevent appreciable competition from phytate, phosphate, thiols and other potential ligands likely to occur in the intestinal lumen.

For the next data set, the target named is haemoglobin (Homo sapiens, UniProt P68871+P69905). Nature of the data set: Binding of 59Fe-labelled complex to haemoglobin (gel permeation column). Conditions: 59Fe-labelled complex 1 mM, NaCl 130 mM, pH 7.4. As for the experimental part: (§2) The ability of the iron complex of maltol to bind to haemoglobin is investigated by studying the elution profile of a ^59Fe label when a mixture of haemoglobin and the ^59Fe-labeled complex (at 1 mM concentration) in NaCl (130 mM) buffered to pH 7.4 by Tris hydrochloride is applied to a PH-10 column (Sephadex G-10 gel permeation column—Pharmacia).

In data set [4] the target is bovine serum albmen (BSA) (Bos taurus, UniProt P02769). Nature of the data set: Binding of complex to BSA (gel permeation column). As to conditions: as haemoglobin procedure, pH 7.4. As for the experimental part:
as §2
The ability of the iron complex of maltol to bind to bovine serum albmen (BSA) is investigated through a similar procedure in which the complex is applied to a column with BSA rather than haemoglobin.

Data set [5] in a line: In vivo 59Fe blood kinetics and tissue distribution in the cat, intravenous. Conditions: for Net ^59Fe content (cpm/g) / Net total ^59Fe content (cpm): 2 μCi given, figures adjusted to 2.2×10^6 cpm. As for the experimental part:
Body temperature was monitored with a rectal thermometer.
The iron maltol complex (100 μg Fe) alone (3:1 molar ratio of maltol:iron) and together with a large excess of maltol (40:1 molar ratio of maltol:iron) was injected intravenously in separate experiments and 0.25 ml samples of blood were taken in intervals. The apparent volume of distribution of the compound was calculated by extrapolation of the log-linear blood concentration curve to zero.
The amount of ^59Fe administration in this experiment was 4 μCi or 2.2×10^6 cpm.

For data set [6] the following is noted: in vivo.
Description: (§3) In each animal the trachea was cannulated to maintain a clear airway and to allow positive pressure artificial respiration if necessary. The left femoral vien was cannulated for the intravenous administration of drugs and physiological saline solution. Arterial blood pressure was monitored by a Washington pressure transducer through a cannula inserted into the femoral artery of the right hind leg. Arterial blood samples were taken at appropriate intervals from a short cannula inserted into an external carotid artery. Body temperature was monitored with a rectal thermometer. Each animal was given heparin (1000 iu/kg) as anticoagulant and additional small amounts of pentobarbitone sodium if needed to maintain a satisfactory level of anaesthesia.
(§4) If those animals where the iron compounds were to be administered into the duodenum, a mid-line incision was made in the abdomen to reveal the intestines. A cannula was then inserted through a small cut such that its tip rested approximately 5 cm below the opening of the bile duct. The cannula was then sutured in place and the abdominal wall closed with stitches.
(§5) The iron maltol complex (100 μg Fe) was also administered to the duodenum of the cat in the presence of a 40 fold excess of maltol followed by 5 ml of 150 ml tris hydrochloride buffer (pH 7.4).
Data set [7] can be described thus: In vivo 59Fe blood level and tissue distribution in the cat, per duodenum. Conditions: 2.65×10^6 cpm administered.
Description: as §3, §4, §5
Data set [8] in a line: Ksol (ability to solubilise iron(III) hydroxide). In kind it is physicochemical.
Description: as §1

The nature of data set [9]: Partition coefficient Kpart n-octanol / Tris hydrochloride. As to conditions: pH 7.4. In kind it is physicochemical. How it is done: An indication of the properties of a compound in this respect is provided by the value of the partition coefficient (Kpart) obtained on partition between n-octanol and Tris hydrochloride (20 mM, pH 7.4; Tris representing 2-amino-2-hydroxymethylpropane 1,3-diol) at 20° C. and expressed as the ratio (concentration of compound in organic phase)/(concentration of compound in aqueous phase).
The partition coefficient Kpart (concentration in n-octanol/concentration in aqueous phase) between n-octanol and Tris hydrochloride (20 mM, pH 7.4) of maltol and of its 3:1 iron complex is measured at 10^−4 M by spectrophotometry. Acid washed glassware is used throughout and, following mixing for 1 minute, the aqueous/n-octanol mixture is […] at 1000 g for 30 seconds. The two resulting phases are separated for a concentration determination by spectrophotometry on each. For maltol, the range 220-340 nm is used for the concentration determination whilst for the complex the range 340-640 nm is used.

Chain of haemoglobin (P69905 2-142 limits assumed): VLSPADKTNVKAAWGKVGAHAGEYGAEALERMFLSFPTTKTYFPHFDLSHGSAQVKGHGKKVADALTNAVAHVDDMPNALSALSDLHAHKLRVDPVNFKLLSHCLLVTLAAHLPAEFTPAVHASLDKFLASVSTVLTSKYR
Chain of haemoglobin (P68871 2-147 limits assumed): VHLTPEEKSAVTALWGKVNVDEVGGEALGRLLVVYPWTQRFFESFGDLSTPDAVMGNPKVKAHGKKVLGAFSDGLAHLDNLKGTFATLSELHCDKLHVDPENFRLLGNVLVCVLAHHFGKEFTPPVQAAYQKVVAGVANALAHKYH
Chain of bovine serum albmen (BSA) (P02769 25-607): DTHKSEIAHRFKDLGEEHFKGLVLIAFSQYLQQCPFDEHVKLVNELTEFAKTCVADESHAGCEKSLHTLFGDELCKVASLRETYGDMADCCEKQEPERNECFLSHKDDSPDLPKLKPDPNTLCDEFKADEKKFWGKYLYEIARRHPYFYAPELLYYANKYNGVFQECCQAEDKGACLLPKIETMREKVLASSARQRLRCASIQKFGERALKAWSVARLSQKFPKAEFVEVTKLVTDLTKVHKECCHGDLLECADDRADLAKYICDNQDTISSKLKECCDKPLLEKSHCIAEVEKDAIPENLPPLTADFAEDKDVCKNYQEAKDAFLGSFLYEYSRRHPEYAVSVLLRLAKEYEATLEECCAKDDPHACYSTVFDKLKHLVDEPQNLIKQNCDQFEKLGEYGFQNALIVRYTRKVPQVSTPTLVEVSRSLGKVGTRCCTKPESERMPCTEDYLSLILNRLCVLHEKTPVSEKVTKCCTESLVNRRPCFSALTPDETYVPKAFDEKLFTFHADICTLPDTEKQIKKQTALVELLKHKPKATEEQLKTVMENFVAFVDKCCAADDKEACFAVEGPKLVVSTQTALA
Description for human erythrocytes: Following this period of incubation an aliquot of the erythrocyte/medium mixture was placed above a layer of silicone oil (ρ=1.06) and the erythrocytes separated by centrifugation through the oil. The ^59Fe levels associated with the erythrocytes and the incubation medium were then counted and presented as a distribution ratio (concentration in erythrocytes/concentration in medium).

Regarding `[Cl][Fe]([Cl])[Cl]` [FeCl3], in the data set on rat jejunal sac, the “Relative iron uptake, 15 minutes” value is reported as 1 and the “Relative iron uptake, 60 minutes” value is on record as 1.

Take `O=C([O-])/C=C/C(=O)[O-].[Fe+2]` [Fe^II fumarate]: in the data set on rat jejunal sac, the “Relative iron uptake, 15 minutes” value came to 4.0 and the “Relative iron uptake, 60 minutes” value came out at 1.8.

Consider `O=C([O-])[C@H](O)[C@@H](O)[C@H](O)[C@H](O)CO.O=C([O-])[C@H](O)[C@@H](O)[C@H](O)[C@H](O)CO.[Fe+2]` [Fe^II gluconate], for which the “Distribution ratio (concentration in erythrocytes/concentration in medium)” value with human erythrocytes (1 mM) was 0.08. Moreover, in the data set with rat jejunal sac, the “Relative iron uptake, 15 minutes” value is reported as 1.6 and the “Relative iron uptake, 60 minutes” value is listed as 0.8. Moreover, in data set [1], the “introduction of iron via the rat intestine (59Fe in organs), comparison” value (“introduction” for short) was “more effective than the sulphate or the EDTA complex”.

In the case of `O=C([O-])CCC(=O)[O-].[Fe+2]` [Fe^II succinate], in the data set on rat jejunal sac, the “Relative iron uptake, 15 minutes” value was 2.0 and the “Relative iron uptake, 60 minutes” value is recorded as 1.0.

Regarding `O=S(=O)([O-])[O-].[Fe+2]` [Fe^II sulphate], the “Relative iron uptake, 15 minutes” value in the data set on rat jejunal sac came out at 2.4. Also, in the data set with rat jejunal sac, the “Relative iron uptake, 60 minutes” value is given as 1.4. Also, the “level of take-up of iron by whole body counting” value (shortened to “level of take-up of iron”) was 13% in [2] (10 mg dose, at 7 days) and 6% in data set [2] (20 mg dose, at 7 days).

Turning to `Cc1occc(=O)c1[O-].Cc1occc(=O)c1[O-].Cc1occc(=O)c1[O-].[Fe+3]` [Fe^III (maltol)3], the thermodynamic stability constant in data set [3] (3:1 complex) amounted to 30. Besides, the “binding of the complex to haemoglobin” value on haemoglobin was “no evidence if found for binding”. The “ability to bind to BSA” value in data set [4] was “little ability to bind to BSA”. In the data set on human erythrocytes (3 mM), the “Distribution ratio (concentration in erythrocytes/concentration in medium)” value is 1.60. In addition, the “time for uptake to reach equilibrium” value in the data set with human erythrocytes (erythrocytes) is reported as “about 15 minutes”. For the same molecule, the “concentration dependence of uptake” value with rat jejunal sac (0.5 to 10 mM, uptake increased linearly) is reported as “does not show saturation kinetics”. For the same molecule, the “Iron uptake (n mole)” value in the data set with rat jejunal sac (iron transferred into serosal contents of sac, basal uptake subtracted, by maltol/iron molar ratio) was 30.0 n mole. In addition, in the data set on rat jejunal sac (jejunal sac, up to 90 minutes), the “time course of uptake” value was “linear for a period 90 minutes”. Further, in the data set on rat jejunal sac, the “Relative iron uptake, 15 minutes” value stood at 40 and the “Relative iron uptake, 60 minutes” value turned out to be 5.8. Moreover, the “introduction” value in [1] (listed as maltol complex) is listed as “more efficient than iron(III) EDTA”. Further, in data set [1] (listed as neutral 3:1 maltol:iron(III) complex), the “introduction” value is given as “markedly superior to iron(II) sulphate”. For the same molecule, in data set [5] (in vivo, iv), the “59Fe directed to the bone marrow (bulk, inferred)” value is reported as “approximately 90%”; the “dose located in combined tissue of heart, liver and spleen” value is listed as “approximately 10%”; the “dose located in the urine” value is “less than 0.2%”. Further, the “loss of iron in the urine” value in data set [2] (daily urine samples over 3 days) was “essentially zero loss of iron”. Also, the “level of take-up of iron” value in [2] (10 mg dose of iron, oral capsule, 14 day figure) is 19%. For the same molecule, the “level of take-up of iron” value in [2] (20 mg dose of iron, oral capsules, 14 day figure) came to 11%.

On to `O=C([O-])CN(CCN(CC(=O)[O-])CC(=O)O)CC(=O)[O-].[Fe+3]` [Fe^III EDTA], for which, in data set [1] (FIG. 3), the “levels of 59Fe in the intestine wall and blood” value is listed as “extremely low”. For the same molecule, the “Net ^59Fe content (cpm/g)” value in [5] (Heart, i.v.) is 209 cpm/g; in data set [5] (Kidney, i.v.) it was 1,134 cpm/g; in data set [5] (Liver, i.v.), 261 cpm/g; in data set [5] (Skeletal muscle, i.v.), 95 cpm/g; in [5] (Spleen, i.v.), 162 cpm/g; in data set [5] (Sternum (bone marrow), i.v.), 1,164 cpm/g. Besides, the “Net ^59Fe content (cpm/g)” value is reported as 62,156 cpm/g in data set [5] (Urine (19 ml, 2 ml sample), i.v.); 188 cpm/g in data set [7] (Heart); 1,762 cpm/g in data set [7] (Kidney); 499 cpm/g in data set [7] (Liver); 117 cpm/g in data set [7] (Skeletal muscle); 200 cpm/g in [7] (Spleen). Besides, the “Net ^59Fe content (cpm/g)” value was 917 cpm/g in data set [7] (Sternum (bone marrow)) and 36,306 cpm/g in data set [7] (Urine (5 ml sample)). The “Net total ^59Fe content (cpm)” value was 3,248 cpm in data set [5] (Heart, i.v.); 21,770 cpm in [5] (Kidney, i.v.); 19,600 cpm in data set [5] (Liver, i.v.); 1,814 cpm in [5] (Spleen, i.v.); 1,180,900 cpm in [5] (Urine (19 ml), i.v.); 2,878 cpm in data set [7] (Heart). Moreover, the “Net total ^59Fe content (cpm)” value in data set [7] (Kidney) is 19,913 cpm; in [7] (Liver), 29,574 cpm; in data set [7] (Spleen), 880 cpm; in data set [7] (Urine (15 ml)) it was 544,596 cpm. In data set [5] (i.v.), the “rate constant of the elimination from the blood, linear phase of the regression” value came to 0.023 min⁻¹. Besides, in [5] (i.v., end of experiment), the “dose located in the urine” value is on record as “over 50%”. In addition, the “plasma levels of radioactivity” value in data set [6] is given as “hardly exceeded the background level”.

In the case of `Cc1occc(=O)c1O` [maltol, 3-hydroxy-2-methyl-4-pyrone], the “log β3 (affinity for iron)” value in data set [3] (ligand maltol, iron) is 30. This molecule returned a Ksol in [8] (ligand, log Ksol must be greater than 0 to solubilise iron(III) hydroxide) of 0.8. The same molecule had a logD in [9] of -0.18.

In the case of Fe^III ascorbate, the “Distribution ratio (concentration in erythrocytes/concentration in medium)” value in the data set on human erythrocytes (1 mM) amounted to 0.12. Moreover, in the data set with rat jejunal sac, the “Relative iron uptake, 15 minutes” value worked out at 0.4 and the “Relative iron uptake, 60 minutes” value came out at 0.8.

With Fe^III citrate, the “Distribution ratio (concentration in erythrocytes/concentration in medium)” value in the data set with human erythrocytes (1 mM) is recorded as 0.05. In the data set with rat jejunal sac, the “Relative iron uptake, 15 minutes” value amounted to 2.0 and the “Relative iron uptake, 60 minutes” value came out at 1.8.

With “apotransferrin: iron-free transferrin, reference for log Ksol”, the “log Ksol” value in data set [8] is listed as 6.0.
